Experimental data taken from the supplement of paper PMC10307832.

Tests used:
Experiment in all cases: relative viability (nuclei count vs DMSO), 5 days (fraction); higher = more cells survive
[1] = compound: CCN(CCO)CCCC(C)Nc1ccnc2cc(Cl)ccc12 [Hydroxychloroquine] + CC(=O)Nc1cccc(-n2c(=O)n(C3CC3)c(=O)c3c(Nc4ccc(I)cc4F)n(C)c(=O)c(C)c32)c1 [Trametinib] (partner 0.02 µM)
In short: (§1)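 Relative viability divides the nuclei count in treated wells by that in vehicle wells. Lung cancer cell lines were seeded in 1536-well plates, dosed by pin tool the next day, and fixed and stained after 5 days in one step with final 0.05% Triton X-100, 1% formaldehyde and 1 ug/ml Hoechst. Dosing was a single drug or a fixed anchor-drug dose plus five library-drug doses (not always all listed) in √10 steps, and values are medians of duplicate plates imaged at 4×.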

[2] = compound: CCN(CCO)CCCC(C)Nc1ccnc2cc(Cl)ccc12 [Hydroxychloroquine] + CS(=O)(=O)CCNCc1ccc(-c2ccc3ncnc(Nc4ccc(OCc5cccc(F)c5)c(Cl)c4)c3c2)o1 [Lapatinib] (partner 2 µM)
In short: as §1

[3] = compound: CCN(CCO)CCCC(C)Nc1ccnc2cc(Cl)ccc12 [Hydroxychloroquine] + N=C(N)NC(=N)NCCc1ccccc1 [Phenformin] (partner 250 µM)
In short: as §1

[4] = compound: CCN(CCO)CCCC(C)Nc1ccnc2cc(Cl)ccc12 [Hydroxychloroquine] + O=C(c1cc(Cc2n[nH]c(=O)c3ccccc23)ccc1F)N1CCN(C(=O)C2CC2)CC1 [Olaparib] (partner 8 µM)
In short: as §1

Cell Line | relative viability ([1]; first compound 0.5 µM) | relative viability ([1]; first compound 1.581 µM) | relative viability ([1]; first compound 5 µM) | relative viability ([1]; first compound 15.81 µM) | relative viability ([1]; first compound 50 µM) | relative viability ([2]; first compound 0.5 µM) | relative viability ([2]; first compound 1.581 µM) | relative viability ([2]; first compound 5 µM) | relative viability ([2]; first compound 15.81 µM) | relative viability ([2]; first compound 50 µM) | relative viability ([3]; first compound 0.5 µM) | relative viability ([3]; first compound 1.581 µM) | relative viability ([3]; first compound 5 µM) | relative viability ([3]; first compound 15.81 µM) | relative viability ([3]; first compound 50 µM) | relative viability ([4]; first compound 0.5 µM) | relative viability ([4]; first compound 1.581 µM) | relative viability ([4]; first compound 5 µM) | relative viability ([4]; first compound 15.81 µM) | relative viability ([4]; first compound 50 µM)
COR-L 105 | 0.472 | 0.393 | 0.44 | 0.384 | 0.391 | 0.369 | 0.37 | 0.346 | 0.318 | 0.327 | 0.529 | 0.476 | 0.497 | 0.351 | 0.447 | 0.675 | 0.612 | 0.596 | 0.519 | 0.744
LK-2 | 0.864 | 0.599 | 0.707 | 0.876 | 1.01 | 0.918 | 0.947 | 0.883 | 1.03 | 1.04 | 0.37 | 0.314 | – | 0.33 | 0.574 | 0.734 | 0.719 | 0.659 | 0.648 | 0.874
NCI-H838 | 0.566 | 0.458 | 0.552 | 0.519 | 0.606 | 1.07 | 1.02 | 1.03 | 0.923 | 1.12 | 0.636 | 0.561 | 0.548 | 0.595 | 0.613 | 0.783 | 0.801 | 0.804 | 0.803 | 0.809
SK-LU-1 | 0.454 | 0.374 | 0.508 | 0.462 | 0.404 | 0.932 | 0.845 | 0.896 | 0.871 | 0.909 | 0.505 | 0.528 | 0.544 | 0.538 | 0.429 | 0.45 | 0.425 | 0.491 | 0.426 | 0.445
NCI-H2023 | 0.529 | 0.492 | 0.504 | 0.53 | 0.503 | 0.793 | 0.652 | 0.691 | 0.905 | 0.994 | 0.423 | 0.433 | 0.436 | 0.4 | 0.386 | 0.566 | 0.405 | 0.501 | 0.479 | 0.466
NCI-H322M | 0.497 | 0.6 | 0.511 | 0.511 | 0.537 | 0.557 | 0.642 | 0.554 | 0.619 | 0.634 | 0.704 | 0.799 | 0.786 | 0.743 | 0.744 | 0.741 | 0.75 | 0.753 | 0.725 | 0.751
NCI-H1666 | 0.789 | 0.786 | 0.848 | 0.812 | 0.794 | 0.572 | 0.483 | 0.681 | 0.61 | 0.538 | 0.601 | 0.551 | 0.586 | 0.562 | 0.554 | 0.669 | 0.727 | 0.719 | 0.749 | 0.693
NCI-H1648 | 0.499 | 0.434 | 0.437 | 0.57 | 0.414 | – | – | – | – | – | – | – | – | – | – | 0.766 | 0.965 | 1.01 | 1.06 | 0.926
NCI-H2087 | 0.202 | 0.234 | 0.187 | 0.193 | 0.238 | 1.11 | 0.907 | 0.942 | 0.946 | 1.11 | 0.445 | 0.383 | 0.486 | 0.566 | 0.464 | 0.596 | 0.709 | 0.683 | 0.756 | 0.511
